Results taken from ChEMBL document CHEMBL2046381, “Defining the mechanism of action and enzymatic selectivity of psammaplin A against its epigenetic targets” (J Med Chem, 2012).

Target: T1, Histone deacetylase 7 (Homo sapiens, UniProt Q8WUI4)
T1 sequence (Q8WUI4 whole entry): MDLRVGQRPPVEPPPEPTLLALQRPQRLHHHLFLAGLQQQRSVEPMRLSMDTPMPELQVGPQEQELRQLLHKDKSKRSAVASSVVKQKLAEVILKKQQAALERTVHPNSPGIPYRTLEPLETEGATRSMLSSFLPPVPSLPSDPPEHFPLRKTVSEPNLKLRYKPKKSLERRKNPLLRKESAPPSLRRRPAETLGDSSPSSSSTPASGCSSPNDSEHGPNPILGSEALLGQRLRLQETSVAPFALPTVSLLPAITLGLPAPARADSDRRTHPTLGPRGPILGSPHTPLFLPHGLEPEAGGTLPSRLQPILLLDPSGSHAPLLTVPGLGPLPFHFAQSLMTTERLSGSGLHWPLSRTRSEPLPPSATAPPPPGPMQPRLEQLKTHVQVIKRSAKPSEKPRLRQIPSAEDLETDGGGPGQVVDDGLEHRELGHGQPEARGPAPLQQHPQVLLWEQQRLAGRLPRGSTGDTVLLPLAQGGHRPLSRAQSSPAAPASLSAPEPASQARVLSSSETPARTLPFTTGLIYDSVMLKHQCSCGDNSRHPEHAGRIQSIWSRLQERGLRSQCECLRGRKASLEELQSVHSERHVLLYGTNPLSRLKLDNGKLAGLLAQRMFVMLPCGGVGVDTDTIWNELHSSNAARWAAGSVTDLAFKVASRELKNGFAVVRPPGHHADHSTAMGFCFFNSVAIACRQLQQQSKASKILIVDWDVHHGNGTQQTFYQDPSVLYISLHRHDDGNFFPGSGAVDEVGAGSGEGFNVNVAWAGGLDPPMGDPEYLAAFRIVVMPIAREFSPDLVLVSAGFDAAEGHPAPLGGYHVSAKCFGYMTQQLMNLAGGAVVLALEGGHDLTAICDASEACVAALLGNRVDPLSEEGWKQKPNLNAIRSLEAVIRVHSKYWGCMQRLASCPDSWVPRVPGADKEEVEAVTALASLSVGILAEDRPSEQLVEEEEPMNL
Test: Inhibition of human recombinant HDAC7 using Boc-lys(Ac)-AMC as substrate preincubated for 20 mins with substrate measured after 60 mins by fluorescence analysis

IC50: 45 µM
SMILES: N/N=C(\Cc1ccc(O)c(Br)c1)C(=O)NCCS
